Source: patent US12714678B2, “Peptides and methods of treating sepsis, atherosclerosis, thrombosis, stroke, heart attack and inflammation” (THE BOARD OF TRUSTEES OF THE UNIVERSITY OF ILLINOIS, priority 2019, dated 2026)
Where a SMILES comes first, the peptide text is derived from it. Bridges are numbered along the chain shown (N, C = ends). Where no end group is shown, it is not given here. [ ]: non-standard residue; d: D form. The star is where a group is joined. hArg = N=C(N)NCCCC[C@H](N)C(=O)O; Myristoyl = CCCCCCCCCCCCCC(=O)*; Mpa = O=C(O)CCS

Columns and labels:
[1] = tested on: human platelets; assay: Human platelet granule (ATP) secretion (lumiaggregometer); type: cell-based; conditions: for integrin-dependent second wave of ATP/granule secretion induced by U46619 / integrin-independent first wave of ATP/granule secretion induced by U46619: human platelets (Integrilin: mouse and human platelets); for ATP secretion induced by thrombin: washed human platelets pretreated with peptide
Protocol: (§1) For human subjects, Institutional Review Board approval was obtained from the University of Illinois at Chicago, and informed consent from volunteers was obtained in accordance with the Declaration of Helsinki. Platelets were prepared as previously described (33). Platelet aggregation and adenosine triphosphate (ATP) secretion were measured simultaneously in a lumiaggregometer (Chronolog) at 37° C. with stirring (1000 rpm), as previously described (34).
(§2) To prepare platelet-rich plasma (PRP), whole blood was anticoagulated with 3.8% trisodium citrate. To prepare human platelets, one-seventh volume of ACD was used as anticoagulant. Platelets were washed twice and resuspended in modified Tyrode's buffer as previously described (27). Platelet aggregation and adenosine triphosphate (ATP) secretion were measured simultaneously in a lumiaggregometer (Chronolog) at 37° C. with stirring (1000 rpm) as previously described (28).

[2] = Acute maximal tolerated dose (MTD) in mice; conditions: mouse, in vivo, 60 mg/kg; CD-1 mice, IV tail vein, single injection, observed 8 days; read-out: maximal tolerated dose (MTD) = maximal feasible dose
Protocol: Four more animals were then injected with the same dose. The animals were observed 2 times per day for 8 days for clinical signs of toxicity.

[3] = tested on: Sprague-Dawley (SD) rats; assay: Toxicity of bolus and continuous intravenous infusion in rats; type: in vivo; conditions: IV bolus 100 mg/kg followed by IV infusion 25 mg/kg/hr for 24 hr
Protocol: (§3) Toxicological responses to bolus and continuous intravenous infusion of M3mP6 HLPN were performed using jugular vein catheterized (JVC) Sprague-Dawley (SD) rats (6-8 weeks old and […]), which were quarantined for at least 3 day after arrival. Four SD rats (n=2 per sex) was given an IV bolus dose of M3mP6 (100 mg/kg, dose volume 10 mL/kg) followed by IV infusion dose of M3mP6 for 24 hr (25 mg/kg/hr for a total dose of 600 mg/kg/day). […] A pilot 7-day continuous infusion study in rats was performed similarly with lower drug concentrations. The parameters observed include mortality, clinical signs, body weights, hematology, clinical chemistry and organ weights. For pharmacokinetic studies, plasma samples for drug analysis were obtained from blood samples collected in satellite 6 males and 6 females (3 rat/sex per time-point) in the dose Groups 3 and 4 (Phase 2) at the following time-point on Day 1 after the bolus dose and infusion were started: 5, 10 and 30 minutes, and 1, 2, 6 and 24 hours. Additional blood samples were collected prior to the end of 5-day infusion, immediately after stopping the infusion, and at 30 minutes, and 1, 4, 6, 24 and 48 hours after the end of the infusion.

[4] = Pharmacokinetics in mice; type: in vivo, mouse; conditions: intravenous injection of 5 mg/kg (5 μmol/kg)
Protocol: For pharmacokinetic studies, CD-1 mice were intravenously injected with 5 mg/kg (5 μmol/kg) M3mP6 (potential therapeutic dose). At the following time points: 0 (pre-dose) min, 5 min, 10 min, 30 min, 1, 2, 4, 6, and 24 hours, 3 drug-treated mice were sacrificed, and their blood drawn via vena cava into K2EDTA tubes. Whole blood and plasma were analyzed for M3mP6 concentrations using Agilent 1290 Infinity LC and 6430 triple quadrupole mass spectrometer and MassHunter software.

[5] = Pharmacokinetics in rats (5-day infusion); parameters: species or system rat; conditions: Sprague-Dawley, in vivo
Protocol: as §3

[6] = tested on: C57BL/6 mice; assay: Tail bleeding time; conditions: cangrelor 30 μg/kg; for tail bleeding, drugs injected after initiation of thrombosis: M3mP6 10 μmol/kg; for tail bleeding time vs normal control: M3mP6 HLPN 10 μmol/kg, aspirin 4.3 mg/kg, clopidogrel 4 mg/kg, ticagrelor 3 mg/kg, MB2mP6
Protocol: M3mP6 was administered via retro-orbital injection 15 minutes prior to procedure.
Tail bleeding time was performed as previously described (21, 39). Eight- to 10-week-old C57BL/6 mice were anesthetized with isoflurane. After cutting 0.5-cm-long segment of the distal tip of the tail, their tails were immersed in 0.15 M NaCl immediately at 37° C. Tail bleeding time was defined as the time between cutting tail and stable cessation of bleeding (no rebleeding within 60s). […] If bleeding persisted at 15 minute time point, bleeding was stopped by application of pressure. Data were analyzed using Mann-Whitney test to compare medians between groups.
Tail bleeding time was performed as previously described (16, 29). Eight- to 10-week-old C57BL/6 mice weighing 20-25 g were anesthetized with isoflurane. After cutting a 0.5-cm-long segment off the distal tip of the tail, their tails were immersed in 0.15 M NaCl immediately at 37° C. Tail bleeding time was defined as the time between cutting the tail and stable cessation of bleeding (no re-bleeding within 60s). […] If bleeding persisted at 15 minutes, bleeding was stopped by application of pressure. Data were analyzed using the Mann-Whitney test to compare medians between groups.

[7] = tested on: C57BL/6 mice; assay: FeCl3-induced mouse carotid artery thrombosis model; type: in vivo; conditions: for formation of stable occlusive thrombus / occlusion time vs normal control: 7.5% FeCl3, M3mP6 HLPN 5 or 10 μmol/kg retro-orbital 15 min before, aspirin 4.3 mg/kg oral 2 h, clopidogrel 4 mg/kg oral 2 h, MB2mP6 15 min before; for anti-thrombotic effect compared with M3mP6 HLPN (10 μmol/kg), pre-injury dosing: clopidogrel 4 mg/kg, ticagrelor 3 mg/kg, aspirin 4.3 mg/kg oral, cangrelor 30 μg/kg retro-orbital, MB2mP6
Protocol: The right carotid artery was isolated (34, 37). A MA-0.5SB nanoprobe (Transonic Systems, Ithaca, NY) was hooked to the carotid artery to monitor blood flow with a TS420 flowmeter (Transonic Systems) as previously described (38). After stabilization, carotid arterial thrombosis was induced with 7.5% ferric chloride (FeCl3) (Sigma Aldrich, St. Louis, MO), a filter paper disc (2 mm diameter) soaked with 1.2 μL of 7.5% FeCl3 was placed on top of the artery for 3 minutes, and then removed. M3mP6 HLPN, HLPN of scrambled control peptide, HLPN of a second control peptide carrying AAA mutation or physiological saline solution were injected 15 minutes before procedure retro-orbitally. […] To study the effect of post-injury drug injection on thrombosis development, the filter paper disc soaked with 1.2 μl 3.75% FeCl3 were placed on artery for 2 minutes, and drugs were injected retro-orbitally 3 minutes after removing the filter paper. Blood flow was monitored continuously until 5 minutes after occlusion or for 30 minutes if no occlusion occurred. Time to occlusion was defined as the time between the removal of the filter paper and stable occlusion (no blood flow for 2 minutes).
Eight- to 10-week-old C57BL/6 mice (20-25 g body weight) were anesthetized by isoflurane inhalation. The right carotid artery was isolated. A MA-0.5SB nanoprobe (Transonic Systems, Ithaca, NY) was hooked to the carotid artery to monitor blood flow with a TS420 flowmeter (Transonic Systems) as previously described (29). After stabilization, a filter paper disc (2 mm diameter) soaked with 1.2 μL of 7.5% FeCl3 (Sigma Aldrich, St. Louis, MO) was placed on top of the carotid artery for 3 minutes to induce thrombosis and then removed. MB2mP6 or scrambled control peptide were injected 15 minutes before the procedure retro-orbitally. Blood flow was monitored continuously until 5 minutes after occlusion or for 15 minutes if no occlusion occurred. Time to occlusion was defined as the time between the removal of the filter paper and stable occlusion (no blood flow for 5 minutes).

[8] = tested on: C57BL/6 mice; assay: Laser-induced mouse cremaster arteriolar thrombosis and intravital microscopy; type: in vivo; conditions: M3mP6 HLPN 10 μmol/kg, cangrelor 30 μg/kg
Protocol: Laser-induced thrombosis and intravital microscopy are performed as previously described using male C57BL/6 mice (6-8 weeks old) anesthetized by intraperitoneal injection of ketamine and xylazine (36). Platelet thrombi were indicated by infusion of DyLight 649-labeled anti-mouse […], Germany). Fibrin deposition was tracked by Alexa Fluor (AF) 488-labeled monoclonal anti-fibrin antibody (clone 59D8) as previously described (25). Suspensions of M3mP6 HLPN (10 μmol/kg) or a control peptide (Myr-ERAFEE (SEQ ID NO: 47)) HLPN in 0.15 M NaCl or cangrelor were injected 15 min or immediately prior to induction of injury. Fluorescence and bright-field images were recorded by an Olympus BX61W microscope with a 603/1.0 NA water immersion objective and a high-speed camera (5 frame/second) through an intensifier at 27-30 injury sites in 7 mice per group. The movies shown are compressed to 100 frame/second.

[9] = tested on: C57BL/6 mice; assay: Arterial perforation bleeding analysis (carotid artery perforation model of surgical bleeding); type: in vivo, mouse; conditions: M3mP6 HLPN 10 μmol/kg; cangrelor loading dose 30 μg/kg
Protocol: The right carotid artery was isolated as previously described (34, 37) and punctured with a 27½G needle in the middle of carotid artery. The perforating wound was immediately covered with a 4×4 mm hemostatic pad (CERTI-GAUZE™, Kansas City, MO), which serve to absorb extravascular blood and also help stop bleeding similarly to that during vascular procedures. The pad was removed after 15 minutes regardless whether bleeding continued or not. The volume of blood absorbed on the pad during the 15-minute period was quantified by estimating the amount of hemoglobin. To do so, adsorbed blood on the pad was dissolved into 30 mL double distilled water. To 1 mL of dissolved blood, 1 mL of the 2× Drabkin's Solution was added. After fully mixing and incubating for 20 minutes at room temperature, the absorbance of the samples was analyzed at 540 nm wave length with a spectrophotometer. Known volumes of blood were similarly analyzed to establish a standard curve for the calculation of blood volume on the pad. Data were analyzed by Mann-Whitney test for statistical significance.

[10] = tested on: human platelets; assay: Human platelet aggregation (lumiaggregometer); type: cell-based; conditions: washed human platelets pretreated with peptide
Protocol: as §1, §2

[11] = Peptide loading, peptide concentration and dissolution of the nanoparticle/micelle formulation; type: physicochemical; conditions: HLPN, or lipid micellar suspension for mP6
Text: The peptide myr-FEEERL(SEQ ID NO: 25) was modified from the original […] cytoplasmic domain sequence to make it more suitable to form peptide-based nanoparticle, and was formulated to form lipid-stabilized high-loading peptide nanoparticles together with PEG2000-DSPE (Avanti Polar Lipids Inc. Alabaster, AL), L-α-phosphatidylcholine (egg PC, Type XI-E, Sigma-Aldrich, St. Louis, MO) with a peptide to PEG-DSPE to PC molar ratio of 36.8:51.7:11.5 or 50:40:10 (further improved formulation with identical in vivo effect) using thin-film rehydration (21, 31). The size distribution of nanoparticles were determined using dynamic light scattering (DLS) (Malvern, Zetasizer Nano ZS90, Worcestershire, U.K.) as previously described (32). This method uses light scattering to monitor the Brownian motion of the particles. Particle size is presented as volume weighted diameter distribution.

[12] = reference (21); cited from earlier work

In the case of `N=C(N)NCCCC[C@@H]1NC(=O)CCSSC[C@@H](C(N)=O)NC(=O)[C@@H]2CCCN2C(=O)[C@H](Cc2c[nH]c3ccccc23)NC(=O)[C@H](CC(=O)O)NC(=O)CNC1=O` [Integrilin, reference compound] ([Mpa][hArg]GDWPC-NH2; disulfide 1-7), the “integrin-dependent second wave of ATP/granule secretion induced by U46619” value [1] is reported as “diminished”, the “integrin-independent first wave of ATP/granule secretion induced by U46619” value [1] is reported as “significantly enhanced” and the “platelet granule secretion, low dose thrombin, integrin antagonist-treated platelets” value ([1]; wild type mouse or human platelets) is reported as “enhanced”.
For `CCCCCCCCCCCCCC(=O)N[C@@H](Cc1ccccc1)C(=O)N[C@@H](CCC(=O)O)C(=O)N[C@@H](CCC(=O)O)C(=O)N[C@@H](CCC(=O)O)C(=O)N[C@@H](CCCNC(=N)N)C(=O)N[C@@H](CC(C)C)C(=O)O` [M3mP6, Myr-FEEERL] (Myristoyl-FEEERL-OH; C-terminus assumed), the MTD at 8 days [2] was 60 mg/kg, the “toxicity during 3-4 days post dose (single dose MTD)” value [3] was “no toxicity was observed” and the half-life ([4]; CD-1, mouse, in vivo, read-out: t1/2−λz (converted)) was 2.46 h. For the same compound, the “maximum level in whole blood” value [4] was 33.36 ng/mL, the half-life ([5]; female, rat, iv) was 3.7 h and the half-life ([5]; male, rat 5-day infusion study, read-out: t1/2−λz (half-life after cessation of infusion), male (converted)) was 3.1 h. The “tail bleeding, drugs injected after initiation of thrombosis” value [6] was “but not M3mP6 caused significant bleeding”.
In the case of `CC(=O)Oc1ccccc1C(=O)O` [aspirin], the “formation of stable occlusive thrombus / occlusion time vs normal control” value [7] is reported as “not significantly different” and the “occlusive thrombus formation, high dose aspirin experiment” value ([7]; aspirin 36 mg/kg i.p. 1 hour prior, M3mP6 HLPN 5 μmol/kg, combination) is reported as “no significant effect”.
With `CSCCNc1nc(SCCC(F)(F)F)nc2c1ncn2[C@@H]1O[C@H](COP(=O)(O)OP(=O)(O)C(Cl)(Cl)P(=O)(O)O)[C@@H](O)[C@H]1O` [cangrelor] the “anti-thrombotic effect compared with M3mP6 (10 μmol/kg), drugs injected after initiation of thrombosis” value ([7]; 3.75% FeCl3, cangrelor 30 μg/kg) was “no statistical difference”, the “anti-thrombotic effect compared with M3mP6 HLPN (10 μmol/kg), pre-injury dosing” value [7] was “moderately but significantly better” and the “intravascular fibrin clot formation at the site of vascular injury” value [8] was “moderate effect”. For the same compound, the platelet thrombus formation ([8]; preinjected) was “completely inhibiting”, the “bleeding from perforated artery vs control mice” value [9] was “caused excessive bleeding” and the “tail bleeding, drugs injected after initiation of thrombosis” value [6] was “caused significant bleeding”. The “tail bleeding time vs normal control” value [6] was “dramatically increased”.
For `COC(=O)[C@H](c1ccccc1Cl)N1CCc2sccc2C1` [clopidogrel], the “formation of stable occlusive thrombus / occlusion time vs normal control” value [7] was “moderate but significant delay” and the “anti-thrombotic effect compared with M3mP6 HLPN (10 μmol/kg), pre-injury dosing” value [7] was “significantly less effective”.
For `CCCSc1nc(N[C@@H]2C[C@H]2c2ccc(F)c(F)c2)c2nnn([C@@H]3C[C@H](OCCO)[C@@H](O)[C@H]3O)c2n1` [ticagrelor], the “tail bleeding time vs normal control” value [6] was “dramatically prolonged”.
For myr-EEERA (Myristoyl-EEERA) [mP5], the thrombin-induced platelet aggregation [10] was “partially inhibited”, the “integrin-dependent second wave of ATP/granule secretion induced by U46619” value [1] was “reduced” and the “integrin-independent first wave of ATP/granule secretion induced by U46619” value [1] was “significantly enhanced”. For the same compound, the “ATP secretion induced by thrombin” value [1] was “enhanced”.
For myr-FEEERA (Myristoyl-FEEERA) [mP6], the “peptide concentration in injectable/micellar suspension” value [11] was 1 mM, the “peptide loading, of total molar content (mol/mol)” value [11] was < 4% and the thrombin-induced platelet aggregation [10] was “potently inhibited”. For the same compound, the “integrin-dependent second wave of ATP/granule secretion induced by U46619” value [1] was “diminished”, the “integrin-independent first wave of ATP/granule secretion induced by U46619” value [1] was “diminished” and the “ATP secretion induced by thrombin” value [1] was “significantly inhibited”. For the same compound, the “maximal concentration of peptide in lipid micellar formulation” value [12] was < 1 mM and the “maximal peptide content of lipid micellar formulation (mol/mol)” value [12] was ≤ 4%.
